Measured values taken from patent publication US8252522B2, “Species detection methods and systems” (The Regents of the University of California, priority 2007, dated 2012).

Experiments:
bacterial spores [1] = conditions: steady-state, incubated for five minutes
Protocol: (§1) A solution of a benzothiazole dye, THIA, was used (FIG. 1a), in a continuous-flow microfluidic device for detection of bacterial species, as described for a terbium (III) different emission assay.
(§2) For the steady-state experiments the dye is mixed with the samples and allowed to incubate for five minutes. In the microfluidic device, however, the dye is mixed with the bacterial sample and carried to the area for emission detection in about few seconds after the mixing.

[2] = system: bacterial spores vs vegetative bacteria; conditions: microfluidic device, detection about few seconds after mixing
Protocol: as §1, §2

bacterial spores [3] = conditions: within the duration of the mixing
[4] = system: different bacteria (E. coli and two bacilli)
Protocol: Kinetics of fluorescence enhancement of 64 μM THIA in the presence of different bacteria (10^6 cell/mL) in TRIS buffer, pH=8.5 (λex=420 nm, λem=470 nm). The time constants, τ, are inversely proportional to the rate constants, k=1/τ. The biexponential data fits assume pseudo-first-order processes. At about 50 s into the data acquisition, the bacteria are injected and into a stirred solution of the dye.
To simplify the kinetic analysis, the assays can be conducted under two types of extreme conditions that will assure that the first step, k1, can be approximated to pseudo-first-order process: (1) the dye is in excess to the binding sites on the bacterial surface; or (2) the binding sites on the bacterial surface are in excess to the dye. Under such conditions, the kinetics of fluorescence enhancement should manifest bi- (or multi-) exponential rises:
[formula] where FM is the maximum fluorescence intensity (the saturation level on the curves); dt is the injection time; Fi are the pre-exponential coefficients; and ti are the time constants for the various processes: τi=1/ki. […]
The samples are illuminated at a region where the staining dye absorbs and the emission is monitored (the fluorescence intensity is recorded every second) at the wavelength maximum of the fluorescence spectrum of the dye (FIG. 2). […] This plateau emission maximum is what is measured with the regular staining procedures. […]

CCN1/C(=C/c2sc3ccccc3[n+]2CC)Sc2ccccc21.[I-] [THIA, 3,3′-Diethylthiacyanine iodide]
increase in emission intensity in the presence of bacterial spores (bacterial spores [1]): about an order of magnitude increase
signal from bacterial spores relative to signal from vegetative bacteria [2]: about 13 times
time of emission enhancement by bacterial spores (bacterial spores [3]): within a second or less
response to staining ([4]; all three species): positive response
duration of the emission intensity increase after initial mixing ([4]; vegetative bacteria): continues to increase for several minutes
